As a reminder, the Ki is a measure of affinity in units of concentration, obtained from inhibition or displacement.

Experiment [1] deals with T1, human A2A adenosine receptor (Homo sapiens, UniProt P29274). More on the design: expressed in transfected cells. To be noted: species H (human), cited from earlier work; for A2A % inhib.: percent inhibition at 10 μM, data from Tchilibon et al.
In experiment [2] the target is mouse A2A adenosine receptor (Mus musculus, UniProt Q60613). The experiment is described as follows: Competition radioligand binding, mouse A2A AR, HEK293 membranes (Table 1).
In experiment [3] the target is T2, mA3AR (Mus musculus, UniProt Q61618).
T2 construct: expressed in transfected cells
T2 sequence (Q61618 1-319): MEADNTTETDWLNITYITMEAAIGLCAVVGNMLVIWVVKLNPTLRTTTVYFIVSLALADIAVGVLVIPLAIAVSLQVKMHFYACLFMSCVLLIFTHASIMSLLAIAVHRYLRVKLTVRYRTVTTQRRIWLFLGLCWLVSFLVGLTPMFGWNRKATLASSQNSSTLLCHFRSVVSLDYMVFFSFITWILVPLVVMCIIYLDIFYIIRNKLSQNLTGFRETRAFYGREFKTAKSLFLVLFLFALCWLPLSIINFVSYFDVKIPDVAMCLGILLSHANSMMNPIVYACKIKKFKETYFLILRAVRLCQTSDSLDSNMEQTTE
Kind of experiment: Competition binding at mA3AR, HEK293 membranes (Example 8). The settings on record: read-out: Affinity (Ki, nM) mA3.

Experiment [4] has as its target T3, hA1AR (Homo sapiens, UniProt P30542).
T3 construct: expressed in transfected cells; host or cells: CHO
T3 sequence (P30542 1-326): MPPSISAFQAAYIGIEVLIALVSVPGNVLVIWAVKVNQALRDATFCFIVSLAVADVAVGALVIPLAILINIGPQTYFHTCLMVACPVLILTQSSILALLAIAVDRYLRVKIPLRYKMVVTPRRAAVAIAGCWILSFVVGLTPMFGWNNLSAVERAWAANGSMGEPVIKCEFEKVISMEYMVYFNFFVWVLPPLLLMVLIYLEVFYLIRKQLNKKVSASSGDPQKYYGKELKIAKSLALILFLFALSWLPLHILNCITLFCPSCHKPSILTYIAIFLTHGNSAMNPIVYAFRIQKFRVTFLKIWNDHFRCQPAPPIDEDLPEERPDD
The experiment is described as follows: Binding at hA1AR, CHO membranes (Example 7). The settings on record: read-out: % inhibition hA1.
Experimental: (§1) CHO cells stably expressing the recombinant hA1, hA3, and rA3Rs, and HEK-293 cells stably expressing the hA2AAR were cultured in Dulbecco's modified Eagle medium (DMEM) and F12 (1:1) supplemented with 10% fetal bovine serum, 100 units/mL penicillin, 100 μg/mL streptomycin, and 2 μmol/mL glutamine. In addition, 800 μg/mL geneticin was added to the A2A media, while 500 μg/mL hygromycin was added to the A1 and A3 media. After harvesting, cells were homogenized and suspended in PBS. Cells were then centrifuged at 240 g for 5 min, and the pellet was resuspended in 50 mM Tris-HCl buffer (pH 7.5) containing 10 mM MgCl2. The suspension was homogenized and was then ultra-centrifuged at 14,330 g for 30 min at 4° C. […] The protein concentration was measured using the BCA Protein Assay Kit from Pierce Biotechnology, Inc. (Rockford, Ill.).
(§2) Into each tube in the binding assay was added 50 μL of increasing concentrations of the test ligand in Tris-HCl buffer (50 mM, pH 7.5) containing 10 mM MgCl2, 50 μL of the appropriate agonist radioligand, and finally 100 μL of membrane suspension. […] For the A2AAR (20 μg/tube) the radioligand used was [^3H]53 (10 nM). […] Nonspecific binding was determined using a final concentration of 10 μM 51 diluted with the buffer. The mixtures were incubated at 25° C. for 60 min in a shaking water bath. Binding reactions were terminated by filtration through Brandel GF/B filters under a reduced pressure using a M-24 cell harvester (Brandel, Gaithersburg, Md.). Filters were washed three times with 3 mL of 50 mM ice-cold Tris-HCl buffer (pH 7.5). […] Filters for A3AR binding were counted using a Packard COBRA™ II γ-counter. The Ki values were determined using GraphPad Prism for all assays.

Experiment [5] has as its target T4, hA2AAR (Homo sapiens, UniProt P29274).
T4 construct: expressed in transfected cells
The experiment is described as follows: Binding at hA2AAR, HEK-293 membranes (Example 7). The settings on record: read-out: % inhibition hA2A. Here is the method: After harvesting, cells were homogenized and suspended in PBS.
Nonspecific binding was determined using a final concentration of 10 μM 51 diluted with the buffer.

The target in experiment [6] is T5, mA1AR (Mus musculus, UniProt Q60612).
T5 construct: expressed in transfected cells
T5 sequence (Q60612 1-326): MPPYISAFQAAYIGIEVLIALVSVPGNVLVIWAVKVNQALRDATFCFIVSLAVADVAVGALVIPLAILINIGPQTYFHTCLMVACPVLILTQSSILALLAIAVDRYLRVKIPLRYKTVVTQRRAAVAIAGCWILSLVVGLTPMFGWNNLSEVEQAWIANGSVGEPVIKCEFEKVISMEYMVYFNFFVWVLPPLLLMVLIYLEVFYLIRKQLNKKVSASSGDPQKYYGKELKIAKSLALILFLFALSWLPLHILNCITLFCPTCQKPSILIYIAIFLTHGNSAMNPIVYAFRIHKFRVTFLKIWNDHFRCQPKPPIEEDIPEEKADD
Kind of experiment: Competition binding at mA1AR, HEK293 membranes (Example 8). The settings on record: percent in parentheses, concentration not given.

A further experiment has as its target T6, hA3AR (Homo sapiens, UniProt P0DMS8).
T6 construct: expressed in transfected cells; host or cells: CHO
T6 sequence (P0DMS8 1-318): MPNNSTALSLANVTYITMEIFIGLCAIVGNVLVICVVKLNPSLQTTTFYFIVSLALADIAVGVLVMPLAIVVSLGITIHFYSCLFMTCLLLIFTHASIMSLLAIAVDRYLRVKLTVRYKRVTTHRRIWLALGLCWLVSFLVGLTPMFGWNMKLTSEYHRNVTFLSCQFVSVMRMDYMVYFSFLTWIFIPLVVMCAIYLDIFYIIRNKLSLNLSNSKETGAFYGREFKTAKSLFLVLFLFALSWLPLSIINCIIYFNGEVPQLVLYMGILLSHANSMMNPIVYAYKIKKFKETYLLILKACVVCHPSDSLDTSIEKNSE
Kind of experiment: Binding at hA3AR, CHO membranes (Example 7). To be noted: read-out: Affinity (Ki, nM) hA3.

The target in a further experiment is T7, human A3 receptor (Homo sapiens, UniProt P0DMS8).
T7 sequence (P0DMS8 1-318): T6 sequence (P0DMS8 1-318)
Kind of experiment: Binding assay at the human A3 receptor, CHO membranes (Example 4).

Experiment [7] addresses T8, mouse A1 adenosine receptor (Mus musculus, UniProt Q60612).
T8 sequence (Q60612 1-326): T5 sequence (Q60612 1-326)
The experiment is described as follows: Competition radioligand binding, mouse A1 AR, HEK293 membranes (Table 1). To be noted: read-out: A1 Ki; species M (mouse); [125I]I-AB-MECA; mean ± SEM.

The target of the next experiment is rat A2A AR (Rattus norvegicus, UniProt P30543). To be noted: species R (rat); data from Lee et al.; cited from earlier work.
The target of another experiment is T9, rat A3 AR (Rattus norvegicus, UniProt P28647).
T9 sequence (P28647 1-320): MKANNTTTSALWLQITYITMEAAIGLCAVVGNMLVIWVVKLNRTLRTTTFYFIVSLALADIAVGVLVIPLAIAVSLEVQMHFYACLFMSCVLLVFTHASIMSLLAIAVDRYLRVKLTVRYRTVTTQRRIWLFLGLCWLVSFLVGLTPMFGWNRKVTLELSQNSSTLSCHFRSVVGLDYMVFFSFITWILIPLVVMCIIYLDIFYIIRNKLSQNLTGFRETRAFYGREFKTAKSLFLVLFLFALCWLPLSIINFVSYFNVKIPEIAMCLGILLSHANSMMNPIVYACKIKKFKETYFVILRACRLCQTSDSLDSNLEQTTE
The settings on record: species R (rat); data from Tchilibon et al. / Lee et al.; cited from earlier work.

Experiment [8] has as its target T4, hA2AAR. The settings on record: cited from earlier work; for % inhibition hA2A: inhibition of radioligand binding at 10 μM, values from the literature.
Experiment [9] concerns the target T5, mA1AR. To be noted: values from Melman et al.; read-out: Affinity (Ki, nM) mA1; cited from earlier work.
A further experiment deals with T10, rat A1 AR (Rattus norvegicus, UniProt P25099).
T10 sequence (P25099 1-326): T5 sequence (Q60612 1-326) with E151V, A155D, I157R, E316D, I319L, D325E
To be noted: species R (rat); data from Lee et al.; cited from earlier work.

Experiment [10] addresses T11, mouse A3 adenosine receptor (Mus musculus, UniProt Q61618).
T11 sequence (Q61618 1-319): T2 sequence (Q61618 1-319)
Kind of experiment: Competition radioligand binding, mouse A3 AR, HEK293 membranes (Table 1). The settings on record: read-out: A3 Ki; species M (mouse); [125I]I-AB-MECA.

In experiment [11] the target is T12, human A1 adenosine receptor (Homo sapiens, UniProt P30542).
T12 sequence (P30542 1-326): T3 sequence (P30542 1-326)
The experiment is described as follows: Radioligand binding, human A1 AR, CHO membranes (Table 1). To be noted: read-out: A1 Ki; species H (human).

Experiment [12] deals with T2, mA3AR. The settings on record: values from Melman et al.; read-out: Affinity (Ki, nM) mA3; cited from earlier work.
Experiment [13] concerns the target T3, hA1AR. The settings on record: values from the literature (footnotes c, d); read-out: Affinity (Ki, nM) hA1; cited from earlier work.
A further experiment deals with T13, mA2AAR (Mus musculus, UniProt Q60613).
T13 construct: expressed in transfected cells
The settings on record: values from Melman et al., cited from earlier work.

The target in experiment [14] is T1, human A2A adenosine receptor. The experiment is described as follows: Radioligand binding, human A2A AR (Table 1). The settings on record: species H (human); percent inhibition at 10 μM.
In experiment [15] the target is T12, human A1 adenosine receptor. More on the design: expressed in transfected cells; host or cells: CHO. To be noted: species H (human); data from Tchilibon et al. or Kim et al.; cited from earlier work.

Where a chain is given by its changes, count along the chain named. Like-named read-outs stand apart in the source and are kept apart here. Marks after values point to notes of the source that are not given here.

T4 sequence (P29274 whole entry): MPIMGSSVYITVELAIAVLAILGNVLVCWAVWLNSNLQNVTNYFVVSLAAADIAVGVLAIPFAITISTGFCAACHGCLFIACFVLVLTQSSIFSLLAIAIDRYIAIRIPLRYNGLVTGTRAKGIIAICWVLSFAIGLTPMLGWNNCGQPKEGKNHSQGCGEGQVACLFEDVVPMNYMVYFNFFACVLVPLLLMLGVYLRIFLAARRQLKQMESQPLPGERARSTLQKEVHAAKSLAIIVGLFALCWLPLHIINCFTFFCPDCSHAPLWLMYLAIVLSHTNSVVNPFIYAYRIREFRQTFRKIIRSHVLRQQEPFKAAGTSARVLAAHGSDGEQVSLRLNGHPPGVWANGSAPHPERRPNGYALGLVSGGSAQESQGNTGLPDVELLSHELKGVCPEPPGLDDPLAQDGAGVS
T1 sequence (P29274 whole entry): as above
Sequence of mouse A2A adenosine receptor (Q60613 whole entry): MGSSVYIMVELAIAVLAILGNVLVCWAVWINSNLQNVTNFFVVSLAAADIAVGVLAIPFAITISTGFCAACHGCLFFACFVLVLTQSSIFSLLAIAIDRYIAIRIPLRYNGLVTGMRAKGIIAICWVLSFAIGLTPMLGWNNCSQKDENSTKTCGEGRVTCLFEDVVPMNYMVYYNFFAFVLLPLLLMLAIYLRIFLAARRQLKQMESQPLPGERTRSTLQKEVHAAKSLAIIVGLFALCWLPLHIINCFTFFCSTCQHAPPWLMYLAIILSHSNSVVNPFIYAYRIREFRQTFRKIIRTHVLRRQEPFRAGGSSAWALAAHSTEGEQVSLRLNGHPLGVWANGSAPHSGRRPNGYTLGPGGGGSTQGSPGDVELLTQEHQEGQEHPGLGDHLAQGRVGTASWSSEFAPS
T13 sequence (Q60613 whole entry): as above
Sequence of rat A2A AR (P30543 whole entry): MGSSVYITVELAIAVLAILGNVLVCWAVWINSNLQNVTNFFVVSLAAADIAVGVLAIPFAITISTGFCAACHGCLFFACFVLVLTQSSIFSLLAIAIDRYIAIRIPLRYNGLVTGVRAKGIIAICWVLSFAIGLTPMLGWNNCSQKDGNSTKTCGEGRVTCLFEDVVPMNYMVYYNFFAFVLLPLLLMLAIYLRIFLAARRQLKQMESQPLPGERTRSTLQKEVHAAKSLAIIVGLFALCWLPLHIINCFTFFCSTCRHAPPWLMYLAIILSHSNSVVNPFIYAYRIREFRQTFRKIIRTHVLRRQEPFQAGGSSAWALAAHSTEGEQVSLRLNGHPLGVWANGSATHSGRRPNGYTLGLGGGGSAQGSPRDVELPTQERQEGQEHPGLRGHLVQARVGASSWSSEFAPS
Experimental for hA3AR: as §1, §2
Experimental for human A3 receptor: Cell culture and membrane preparation: CHO (Chinese hamster ovary) cells expressing the recombinant human A3AR were cultured in DMEM (Dulbecco's modified Eagle's medium) supplemented with 10% fetal bovine serum, 100 units/mL penicillin, 100 μg/mL streptomycin, 2 μmol/mL glutamine and 800 μg/mL geneticin. The CHO cells expressing rat A3ARs were cultured in DMEM and F12 (1:1). Cells were harvested by trypsinization. After homogenization and suspension, cell membranes were centrifuged at 500 g for 10 min, and the pellet was re-suspended in 50 mM Tris.HCl buffer (pH 8.0) containing 10 mM MgCl2, 1 mM EDTA and 0.1 mg/mL CHAPS (3[(3-cholamidopropyl)dimethylammonio]-propanesulfonic acid). […] The protein concentration was measured using the Bradford assay.
The mixtures were incubated at 37° C. for 60 min. Binding reactions were terminated by filtration through Whatman GF/B filters under reduced pressure using a MT-24 cell harvester (Brandell, Gaithersburgh, Md., USA). Filters were washed three times with 9 mL ice-cold buffer. Radioactivity was determined in a Beckman 5500B γ-counter.

As to `CNC(=O)C12CC1C(n1cnc3c(NCc4cccc(C#CCO)c4)nc(Cl)nc31)C(O)C2O` (centres unmarked) [Compound 16], the A2A % inhib. result in [1] is given as “(56%)^f”. Further, the inhibition at 100 µM in experiment [2] (read-out: A2A % inhib.) amounted to 11%.
`CNC(=O)[C@@]12C[C@@H]1[C@@H](n1cnc3c(NC)nc(C#Cc4ccc(F)cc4)nc31)[C@H](O)[C@@H]2O` [Compound 313, (1S,2R,3S,4R,5S)-4-(2-((4-Fluorophenyl)ethynyl)-6-(methylamino)-9H-purin-9-yl)-2,3-dihydroxy-N-methylbicyclo[3.1.0]hexane-1-carboxamide]: the Ki at mA3AR [3] worked out at 66 nM; on hA3AR, 0.53 ± 0.09 nM. Besides, the inhibition at 10 µM was 27% at hA1AR [4] and 19% on hA2AAR [5]. The “% inhibition mA1” value at mA1AR [6] was “(25%)”.
On the same counts, the results for `CNC(=O)[C@@]12C[C@@H]1[C@@H](n1cnc3c(NC)nc(C#Cc4ccccc4Cl)nc31)[C@H](O)[C@@H]2O` [Compound 314, (1S,2R,3S,4R,5S)-4-(2-((2-Chlorophenyl)ethynyl)-6-(methylamino)-9H-purin-9-yl)-2,3-dihydroxy-N-methylbicyclo[3.1.0]hexane-1-carboxamide] are 55 nM, 0.58 ± 0.04 nM, 22%, 30% and “(45%)”.
On to `O[C@@H]1[C@H](O)[C@@H]2C[C@@H]2[C@H]1n1cnc2c(Nc3cccc4ccccc34)nc(Cl)nc21` [Compound 110b, (1′R,2′R,3′S, 4′R,5′S)-4′-[2-Chloro-6-(1-naphthylamino)purine]-2′,3′-O-dihydroxybicyclo[3.1.0]hexane], for which, on human A3 receptor, the “binding to the A3AR (in words)” value is reported as “nanomolar binding affinity”.
On to `CNC(=O)[C@@]12C[C@@H]1[C@@H](n1cnc3c(NC)nc(Cl)nc31)[C@H](O)[C@@H]2O` [Compound 12], for which the Ki was 55.3 ± 6 nM in [7]; above 10000 nM on rat A2A AR; 160 ± 30 nM on rat A3 AR; 55.3 ± 6 nM at mA1AR [9]; 805 nM at rat A1 AR; 49 ± 3.9 nM in experiment [10]. Moreover, the Ki is 2010 ± 1700 nM in [11], 49 ± 3.9 nM on mA3AR [12] and 2100 ± 1700 nM at hA1AR [13]. Further, the “% inhibition hA2A” value on hA2AAR [8] is on record as “(6%)”. In addition, in [1], the A2A % inhib. entry is given as “(6%)^d,f”.
For the compound `CCCC#Cc1nc(NCc2cccc(Cl)c2)c2ncn([C@@H]3[C@H](O)[C@H](O)[C@]4(C(=O)NC)C[C@H]34)c2n1` [Compound 5, (1′S,2′R,3′S,4′S,5′S)-4′-[6-(3-Chlorobenzylamino)-2-(1-pentynyl)-9-yl]-2′,3′-dihydroxybicyclo[3.1.0]hexane-1′-carboxylic acid N-methylamide], the “% inhibition hA2A” value on hA2AAR [8] was “(80%)”. On mA2AAR (concentration not defined (mark ^1)), the “% inhibition mA2A” value is given as “(42%)^1”. Besides, the A2A % inhib. entry is “(42%)^i” in experiment [2] (species M (mouse), percent inhibition at 100 μM) and “(80%)^f” in [14].
Take `CNC(=O)[C@@]12C[C@@H]1[C@@H](n1cnc3c(NCc4cccc(Cl)c4)nc(Cl)nc31)[C@H](O)[C@@H]2O` [Compound 13]: the Ki in experiment [7] was 15.3 ± 5.8 nM; on rat A3 AR, 1 nM; at hA2AAR [8] (values from the literature (footnotes c, d), read-out: Affinity (Ki, nM) hA2A), 2300 ± 100 nM; on mA1AR [9] it was 15.3 ± 5.8 nM; in experiment [10], 1.49 ± 0.46 nM; at mA2AAR (read-out: Affinity (Ki, nM) mA2A), 10400 nM. The Ki is 2300 ± 100 nM in experiment [1] (data from Tchilibon et al. or Kim et al.); 1.49 ± 0.46 nM at mA3AR [12]; 10400 ± 1700 nM in experiment [2] (read-out: A2A Ki, species M (mouse), [3H]CGS21680); 260 ± 60 nM in [15]; 260 ± 60 nM on hA1AR [13].
Regarding `CNC(=O)[C@@]12C[C@@H]1[C@@H](n1cnc3c(NCc4cccc(Cl)c4)nc(C#Cc4ccc(N)cc4)nc31)[C@H](O)[C@@H]2O` [Compound 332a, (1S,2R,3S,4R,5S)-4-(2-((4-Aminophenyl)ethynyl)-6-(3-chlorobenzylamino)-9H-purin-9-yl)-2,3-dihydroxy-N-methylbicyclo[3.1.0]hexane-1-carboxamide], the Ki at mA3AR [3] turned out to be 17 nM; at hA3AR, 2.27 ± 0.7 nM. In addition, the inhibition at 10 µM on hA1AR [4] was determined as 2%; at hA2AAR [5] it was 44%. Also, the “% inhibition mA1” value on mA1AR [6] is reported as “(93%)”.
